Structures can show the parent of a compound that is named as a salt.

T1 sequence (P37288 whole entry): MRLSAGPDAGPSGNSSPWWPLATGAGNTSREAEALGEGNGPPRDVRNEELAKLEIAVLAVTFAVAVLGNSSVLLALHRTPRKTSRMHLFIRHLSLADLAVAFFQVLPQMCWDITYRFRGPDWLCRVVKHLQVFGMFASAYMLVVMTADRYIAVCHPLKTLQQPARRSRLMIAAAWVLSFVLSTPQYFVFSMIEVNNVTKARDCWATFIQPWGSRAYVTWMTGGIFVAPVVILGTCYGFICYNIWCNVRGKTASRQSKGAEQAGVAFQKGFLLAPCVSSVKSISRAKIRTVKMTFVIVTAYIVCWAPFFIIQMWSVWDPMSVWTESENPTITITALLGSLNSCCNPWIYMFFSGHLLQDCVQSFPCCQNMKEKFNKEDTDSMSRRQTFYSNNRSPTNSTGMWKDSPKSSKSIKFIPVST

This assay has as its target T1, human V1a receptor (Homo sapiens, UniProt P37288).
T1 construct: expressed in transfected cells; host or cells: HEK293 cells, transiently transfected; cell membranes
The assay can be described thus: human V1a receptor binding studies (3H-Vasopressin, SPA beads). Particulars: membranes from HEK293 cells transiently transfected with human V1a receptor, Ki calculated from IC50 by the Cheng-Prussoff equation, read-out: pKi (hV1a) (converted). In short, it runs like this: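 Membranes from HEK293 cells transiently expressing human V1a were bound to yttrium silicate SPA beads in Tris/NaCl/KCl/CaCl2/MgCl2 buffer. 3H-vasopressin (4 nM stock) and compound in 2% DMSO incubated 1 h at room temperature. Non-specific binding was defined with cold vasopressin; IC50 was converted to Ki by Cheng-Prusoff.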
Regarding `CN1Cc2cc(Cl)ccc2-n2c(nnc2[C@H]2CC[C@H](c3ncccc3Cl)CC2)C1` [Example 84, trans-8-Chloro-1-[4-(3-chloro-pyridin-2-yl)-cyclohexyl]-5-methyl-5,6-dihydro-4H-2,3,5,10b-tetraaza-benzo[e]azulene], the Ki was 0.501 nM.
For the compound `CC(C)(C)OC(=O)N1Cc2cc(F)ccc2-n2c(nnc2[C@H]2CC[C@H](c3ncccc3F)CC2)C1` [Example 42, trans-8-Fluoro-[4-(3-fluoro-pyridin-2-yl)-cyclohexyl]-4H,6H-2,3,5,10b-tetraaza-benzo[e]azulene-5-carboxylic acid tert-butyl ester], the Ki was 0.525 nM.
As for `CC(C)(C)OC(=O)N1Cc2cc(Cl)ccc2-n2c(nnc2[C@H]2CC[C@H](c3cc(Cl)ccn3)CC2)C1` [Example 25, trans-8-Chloro-1-[4-(4-chloro-pyridin-2-yl)-cyclohexyl]-4H,6H-2,3,5,10b-tetraaza-benzo[e]azulene-5-carboxylic acid tert-butyl ester], the figure is 0.427 nM; as for `COc1cccc([C@H]2CC[C@H](c3nnc4n3-c3ccc(Cl)cc3CN(C(=O)OC(C)(C)C)C4)CC2)n1` [Example 13, trans-8-Chloro-1-[4-(6-methoxy-pyridin-2-yl)-cyclohexyl]-4H,6H-2,3,5,10b-tetraaza-benzoazulene-5-carboxylic acid tert-butyl ester], 0.501 nM; as for `CN1Cc2cc(Cl)ccc2-n2c(nnc2[C@H]2CC[C@@H](c3ncccn3)CC2)C1` [Example 62, cis-8-Chloro-5-methyl-1-(4-pyrimidin-2-yl-cyclohexyl)-5,6-dihydro-4H-2,3,5,10b-tetraaza-benzo[e]azulene], 95.5 nM.
With `Fc1ncccc1[C@H]1CC[C@H](c2nnc3n2-c2ccc(Cl)cc2CNC3)CC1` [Example 55, trans-8-Chloro-1-[4-(2-fluoro-pyridin-3-yl)-cyclohexyl]-5,6-dihydro-4H-2,3,5,10b-tetraaza-benzo[e]azulene] the figure was 69.2 nM.
`Clc1ccc2c(c1)CNCc1nnc([C@H]3CC[C@H](c4cnccn4)CC3)n1-2` [Example 70, trans-8-Chloro-1-(4-pyrazin-2-yl-cyclohexyl)-5,6-dihydro-4H-2,3,5,10b-tetraaza-benzo[e]azulene]: the Ki is 15.1 nM.
With `Cc1cnc(C)c([C@H]2CC[C@H](c3nnc4n3-c3ccc(Cl)cc3CN(C(=O)OC(C)(C)C)C4)CC2)n1` [Example 78, trans-8-Chloro-1-[4-(3,6-dimethyl-pyrazin-2-yl)-cyclohexyl]-4H,6H-2,3,5,10b-tetraaza-benzo[e]azulene-5-carboxylic acid tert-butyl ester] the figure was 0.794 nM; with `COCCN1Cc2cc(Cl)ccc2-n2c(nnc2[C@H]2CC[C@H](c3ncccc3F)CC2)C1` [Example 35, trans-8-Chloro-1-[4-(3-fluoro-pyridin-2-yl)-cyclohexyl]-5-(2-methoxy-ethyl)-5,6-dihydro-4H-2,3,5,10b-tetraaza-benzo[e]azulene], 0.977 nM.
As for `CC(C)(C)OC(=O)N1Cc2cc(Cl)ccc2-n2c(nnc2[C@H]2CC[C@H](c3cnccn3)CC2)C1` [Example 69, trans-8-Chloro-1-(4-pyrazin-2-yl-cyclohexyl)-4H,6H-2,3,5,10b-tetraaza-benzo[e]azulene-5-carboxylic acid tert-butyl ester], the figure is 0.603 nM; as for `CN1Cc2cc(Cl)ccc2-n2c(nnc2[C@H]2CC[C@H](c3cnccn3)CC2)C1` [Example 71, trans-8-Chloro-5-methyl-1-(4-pyrazin-2-yl-cyclohexyl)-5,6-dihydro-4H-2,3,5,10b-tetraaza-benzo[e]azulene], 1.7 nM; as for `CC(C)(C)OC(=O)N1Cc2cc(Cl)ccc2-n2c(nnc2[C@H]2CC[C@H](c3cccc(Cl)n3)CC2)C1` [Example 16, trans-8-Chloro-1-[4-(6-chloro-pyridin-2-yl)-cyclohexyl]-4H,6H-2,3,5,10b-tetraaza-benzoazulene-5-carboxylic acid tert-butyl ester], 0.302 nM.
As for `CC(C)(C)OC(=O)N1Cc2cc(Cl)ccc2-n2c(nnc2[C@H]2CC[C@H](c3ccc(F)cn3)CC2)C1` [Example 22, trans-8-Chloro-1-[4-(5-fluoro-pyridin-2-yl)-cyclohexyl]-4H,6H-2,3,5,10b-tetraaza-benzo[e]azulene-5-carboxylic acid tert-butyl ester], the figure is 0.302 nM; as for `Fc1cccnc1[C@H]1CC[C@H](c2nnc3n2-c2ccc(Cl)cc2CNC3)CC1` [Example 29, trans-8-Chloro-1-[4-(3-fluoro-pyridin-2-yl)-cyclohexyl]-5,6-dihydro-4H-2,3,5,10b-tetraaza-benzo[e]azulene], 1.51 nM.
Take `CC(C)(C)OC(=O)N1Cc2cc(Cl)ccc2-n2c(nnc2[C@H]2CC[C@H](c3ncccn3)CC2)C1` [Example 57, trans-8-Chloro-1-(4-pyrimidin-2-yl-cyclohexyl)-4H,6H-2,3,5,10b-tetraaza-benzo[e]azulene-5-carboxylic acid tert-butyl ester]: the Ki is 1.58 nM.
As for `Cc1cccc([C@H]2CC[C@H](c3nnc4n3-c3ccc(Cl)cc3CN(C)C4)CC2)n1` [Example 6, trans-8-Chloro-1-[4-(6-methyl-pyridin-2-yl)-cyclohexyl]-5-methyl-5,6-dihydro-4H-2,3,5,10b-tetraaza-benzo[e]azulene], the figure is 0.891 nM; as for `CN1Cc2cc(Cl)ccc2-n2c(nnc2[C@H]2CC[C@H](c3cccc(F)n3)CC2)C1` [Example 21, trans-8-Chloro-1-[4-(6-fluoro-pyridin-2-yl)-cyclohexyl]-5-methyl-5,6-dihydro-4H-2,3,5,10b-tetraaza-benzo[e]azulene], 1.82 nM.
`Clc1ccc2c(c1)CNCc1nnc([C@H]3CC[C@H](c4ncccn4)CC3)n1-2` [Example 59, trans-8-Chloro-1-(4-pyrimidin-2-yl-cyclohexyl)-5,6-dihydro-4H-2,3,5,10b-tetraaza-benzo[e]azulene]: the Ki is 9.33 nM.
With `Cc1nccc([C@H]2CC[C@H](c3nnc4n3-c3ccc(Cl)cc3CNC4)CC2)n1` [Example 67, trans-8-Chloro-1-[4-(2-methyl-pyrimidin-4-yl)-cyclohexyl]-5,6-dihydro-4H-2,3,5,10b-tetraaza-benzo[e]azulene] the figure was 1100 nM; with `CCc1cccc([C@H]2CC[C@H](c3nnc4n3-c3ccc(Cl)cc3CNC4)CC2)n1` [Example 8, trans-8-Chloro-1-[4-(6-ethyl-pyridin-2-yl)-cyclohexyl]-5,6-dihydro-4H-2,3,5,10b-tetraaza-benzo[e]azulene], 44.7 nM.
As for `CC(C)(C)OC(=O)N1Cc2cc(Cl)ccc2-n2c(nnc2[C@H]2CC[C@H](c3cccnc3)CC2)C1` [Example 48, trans-8-Chloro-1-(4-pyridin-3-yl-cyclohexyl)-4H,6H-2,3,5,10b-tetraaza-benzo[e]azulene-5-carboxylic acid tert-butyl ester], the figure is 0.603 nM.
With `CN(C)S(=O)(=O)N1Cc2cc(Cl)ccc2-n2c(nnc2[C@H]2CC[C@H](c3ncccc3F)CC2)C1` [Example 41, trans-8-Chloro-1-[4-(3-fluoro-pyridin-2-yl)-cyclohexyl]-4H,6H-2,3,5,10b-tetraaza-benzo[e]azulene-5-sulfonic acid dimethylamide] the figure was 0.603 nM; with `Clc1ccc2c(c1)CNCc1nnc([C@H]3CC[C@H](c4ccccn4)CC3)n1-2` [Example 2, trans-8-Chloro-1-(4-pyridin-2-yl-cyclohexyl)-5,6-dihydro-4H-2,3,5,10b-tetraaza-benzo[e]azulene dihydrochloride], 10 nM.

(Values after patent US8492376B2, “Heteroaryl-cyclohexyl-tetraazabenzo[e]azulenes” (Hoffmann-La Roche Inc., priority 2010, dated 2013).)
